For one assay, the system named is COR-L 105. In words: relative viability (nuclei count vs DMSO), 5 days (fraction); higher = more cells survive. The settings on record: first compound 0.253 µM. A digest of the protocol: (§1)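 Dosing by pin tool came one day after lung cancer cell lines were seeded in 1536-well plates, using either one drug or a fixed anchor-drug dose plus five library-drug doses (not always all listed) in √10 steps. After 5 days, nuclei were counted on 4× images. Relative viability is treated-well nuclei count divided by vehicle-well nuclei count, and values are medians of duplicate plates.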
`Nc1cccc2c1CN(C1CCC(=O)NC1=O)C2=O` (configuration not stated) [Lenalidomide] + Nc1ncn([C@H]2C[C@H](O)[C@@H](CO)O2)c(=O)n1 [Decitabine] (partner 2 µM) displayed a relative viability of 0.684.
The same measure, in the same setting: to `Nc1cccc2c1CN(C1CCC(=O)NC1=O)C2=O` (configuration not stated) [Lenalidomide] + N=C(N)NC(=N)NCCc1ccccc1 [Phenformin] (partner 250 µM) belongs 0.464; to `Nc1cccc2c1CN(C1CCC(=O)NC1=O)C2=O` (configuration not stated) [Lenalidomide] + Nc1nc2[nH]cc(CCc3ccc(C(=O)N[C@@H](CCC(=O)O)C(=O)O)cc3)c2c(=O)[nH]1 [Pemetrexed] (partner 0.2 µM), 1.21.
On the same count and under the same terms, to `Nc1cccc2c1CN(C1CCC(=O)NC1=O)C2=O` (configuration not stated) [Lenalidomide] + CC(=O)c1c(C)c2cnc(Nc3ccc(N4CCNCC4)cn3)nc2n(C2CCCC2)c1=O [Palbociclib] (partner 0.5 µM) belongs 0.394.
In the case of `Nc1cccc2c1CN(C1CCC(=O)NC1=O)C2=O` (configuration not stated) [Lenalidomide] + O=C(CCCCCCC(=O)Nc1ccccc1)NO [Vorinostat] (partner 1 µM), the relative viability is 0.682.
Still for that read-out and setting: to `Nc1cccc2c1CN(C1CCC(=O)NC1=O)C2=O` (configuration not stated) [Lenalidomide] + COc1cccc2cc(-c3nc([C@H]4CC[C@H](C(=O)O)CC4)n4ncnc(N)c34)[nH]c12 [OSI-027] (partner 0.5 µM) belongs 0.715.

Staying with this assay, now noted: first compound 0.8 µM.
Regarding `Nc1cccc2c1CN(C1CCC(=O)NC1=O)C2=O` (configuration not stated) [Lenalidomide] + Nc1ncn([C@H]2C[C@H](O)[C@@H](CO)O2)c(=O)n1 [Decitabine] (partner 2 µM), the relative viability turned out to be 0.704.
The same measure, in the same setting: to `Nc1cccc2c1CN(C1CCC(=O)NC1=O)C2=O` (configuration not stated) [Lenalidomide] + N=C(N)NC(=N)NCCc1ccccc1 [Phenformin] (partner 250 µM) belongs 0.523.
Still for that read-out and setting: to `Nc1cccc2c1CN(C1CCC(=O)NC1=O)C2=O` (configuration not stated) [Lenalidomide] + Nc1nc2[nH]cc(CCc3ccc(C(=O)N[C@@H](CCC(=O)O)C(=O)O)cc3)c2c(=O)[nH]1 [Pemetrexed] (partner 0.2 µM) belongs 1.16; to `Nc1cccc2c1CN(C1CCC(=O)NC1=O)C2=O` (configuration not stated) [Lenalidomide] + CC(=O)c1c(C)c2cnc(Nc3ccc(N4CCNCC4)cn3)nc2n(C2CCCC2)c1=O [Palbociclib] (partner 0.5 µM), 0.412.
The same measure, in the same setting: to `Nc1cccc2c1CN(C1CCC(=O)NC1=O)C2=O` (configuration not stated) [Lenalidomide] + O=C(CCCCCCC(=O)Nc1ccccc1)NO [Vorinostat] (partner 1 µM) belongs 0.863; to `Nc1cccc2c1CN(C1CCC(=O)NC1=O)C2=O` (configuration not stated) [Lenalidomide] + COc1cccc2cc(-c3nc([C@H]4CC[C@H](C(=O)O)CC4)n4ncnc(N)c34)[nH]c12 [OSI-027] (partner 0.5 µM), 0.632.

Staying with this assay, now noted: first compound 2.53 µM.
Turning to `Nc1cccc2c1CN(C1CCC(=O)NC1=O)C2=O` (configuration not stated) [Lenalidomide] + Nc1ncn([C@H]2C[C@H](O)[C@@H](CO)O2)c(=O)n1 [Decitabine] (partner 2 µM), the relative viability stood at 0.763.
As for `Nc1cccc2c1CN(C1CCC(=O)NC1=O)C2=O` (configuration not stated) [Lenalidomide] + N=C(N)NC(=N)NCCc1ccccc1 [Phenformin] (partner 250 µM), the relative viability was found to be 0.554.
`Nc1cccc2c1CN(C1CCC(=O)NC1=O)C2=O` (configuration not stated) [Lenalidomide] + Nc1nc2[nH]cc(CCc3ccc(C(=O)N[C@@H](CCC(=O)O)C(=O)O)cc3)c2c(=O)[nH]1 [Pemetrexed] (partner 0.2 µM) yielded a relative viability of 1.22.
The same measure, in the same setting: to `Nc1cccc2c1CN(C1CCC(=O)NC1=O)C2=O` (configuration not stated) [Lenalidomide] + CC(=O)c1c(C)c2cnc(Nc3ccc(N4CCNCC4)cn3)nc2n(C2CCCC2)c1=O [Palbociclib] (partner 0.5 µM) belongs 0.409; to `Nc1cccc2c1CN(C1CCC(=O)NC1=O)C2=O` (configuration not stated) [Lenalidomide] + O=C(CCCCCCC(=O)Nc1ccccc1)NO [Vorinostat] (partner 1 µM), 0.983.
The same measure, in the same setting: to `Nc1cccc2c1CN(C1CCC(=O)NC1=O)C2=O` (configuration not stated) [Lenalidomide] + COc1cccc2cc(-c3nc([C@H]4CC[C@H](C(=O)O)CC4)n4ncnc(N)c34)[nH]c12 [OSI-027] (partner 0.5 µM) belongs 0.697.

Still in this assay, the particulars now being: first compound 8 µM.
Take `Nc1cccc2c1CN(C1CCC(=O)NC1=O)C2=O` (configuration not stated) [Lenalidomide] + Nc1ncn([C@H]2C[C@H](O)[C@@H](CO)O2)c(=O)n1 [Decitabine] (partner 2 µM): the relative viability stood at 0.711.
Turning to `Nc1cccc2c1CN(C1CCC(=O)NC1=O)C2=O` (configuration not stated) [Lenalidomide] + N=C(N)NC(=N)NCCc1ccccc1 [Phenformin] (partner 250 µM), the relative viability was 0.513.
As to `Nc1cccc2c1CN(C1CCC(=O)NC1=O)C2=O` (configuration not stated) [Lenalidomide] + Nc1nc2[nH]cc(CCc3ccc(C(=O)N[C@@H](CCC(=O)O)C(=O)O)cc3)c2c(=O)[nH]1 [Pemetrexed] (partner 0.2 µM), the relative viability came to 1.2.
Same read-out and setting: to `Nc1cccc2c1CN(C1CCC(=O)NC1=O)C2=O` (configuration not stated) [Lenalidomide] + CC(=O)c1c(C)c2cnc(Nc3ccc(N4CCNCC4)cn3)nc2n(C2CCCC2)c1=O [Palbociclib] (partner 0.5 µM) belongs 0.413; to `Nc1cccc2c1CN(C1CCC(=O)NC1=O)C2=O` (configuration not stated) [Lenalidomide] + O=C(CCCCCCC(=O)Nc1ccccc1)NO [Vorinostat] (partner 1 µM), 0.858; to `Nc1cccc2c1CN(C1CCC(=O)NC1=O)C2=O` (configuration not stated) [Lenalidomide] + COc1cccc2cc(-c3nc([C@H]4CC[C@H](C(=O)O)CC4)n4ncnc(N)c34)[nH]c12 [OSI-027] (partner 0.5 µM), 0.821.

A further assay relates to COR-L23. The description is as above. As to conditions: first compound 0.253 µM. The essentials:
as §1
`Nc1cccc2c1CN(C1CCC(=O)NC1=O)C2=O` (configuration not stated) [Lenalidomide] + Nc1ncn([C@H]2C[C@H](O)[C@@H](CO)O2)c(=O)n1 [Decitabine] (partner 2 µM) returned a relative viability of 0.416.
The compound `Nc1cccc2c1CN(C1CCC(=O)NC1=O)C2=O` (configuration not stated) [Lenalidomide] + N=C(N)NC(=N)NCCc1ccccc1 [Phenformin] (partner 250 µM) returned a relative viability of 0.412.
Same read-out and setting: to `Nc1cccc2c1CN(C1CCC(=O)NC1=O)C2=O` (configuration not stated) [Lenalidomide] + Nc1nc2[nH]cc(CCc3ccc(C(=O)N[C@@H](CCC(=O)O)C(=O)O)cc3)c2c(=O)[nH]1 [Pemetrexed] (partner 0.2 µM) belongs 0.192; to `Nc1cccc2c1CN(C1CCC(=O)NC1=O)C2=O` (configuration not stated) [Lenalidomide] + CC(=O)c1c(C)c2cnc(Nc3ccc(N4CCNCC4)cn3)nc2n(C2CCCC2)c1=O [Palbociclib] (partner 0.5 µM), 0.342; to `Nc1cccc2c1CN(C1CCC(=O)NC1=O)C2=O` (configuration not stated) [Lenalidomide] + O=C(CCCCCCC(=O)Nc1ccccc1)NO [Vorinostat] (partner 1 µM), 0.542.
Same read-out and setting: to `Nc1cccc2c1CN(C1CCC(=O)NC1=O)C2=O` (configuration not stated) [Lenalidomide] + COc1cccc2cc(-c3nc([C@H]4CC[C@H](C(=O)O)CC4)n4ncnc(N)c34)[nH]c12 [OSI-027] (partner 0.5 µM) belongs 0.781.

Staying with this assay, now noted: first compound 0.8 µM.
With `Nc1cccc2c1CN(C1CCC(=O)NC1=O)C2=O` (configuration not stated) [Lenalidomide] + Nc1ncn([C@H]2C[C@H](O)[C@@H](CO)O2)c(=O)n1 [Decitabine] (partner 2 µM), the relative viability came out at 0.395.
Same read-out and setting: to `Nc1cccc2c1CN(C1CCC(=O)NC1=O)C2=O` (configuration not stated) [Lenalidomide] + N=C(N)NC(=N)NCCc1ccccc1 [Phenformin] (partner 250 µM) belongs 0.412.

The values above are taken from the supplement of paper PMC10307832.
